The text below walks through data of PMC6068397 (ACS nano, 2018).

“Also recorded” adds a separate entry of the source.

In test [1] the target is native MOR. The following applies: optical assays; cited from earlier work.
The test system of test [2] is water-soluble μ-opioid receptor (wsMOR). In kind it is binding, human. The conditions noted are these: 1× PBS.
Test [3] deals with native MOR. The conditions noted are these: cited from earlier work.
In test [4] the test system is water-soluble μ-opioid receptor (wsMOR). The experiment in a line: wsMOR-functionalized graphene field-effect transistor. The test is classed as binding, human. The following applies: GFET, 1 nM oxytocin solution.

As to [D-Ala^2, N-MePhe^4, Gly-ol]-enkephalin, on native MOR [1], the “KA, binding between native MOR and enkephalin” value is listed as 1.2−3.1 nM.

Regarding β-endorphin, the “Ratio of amplitude A, β-endorphin to enkephalin” value in test [2] (larger than the amplitude found for enkephalin) was ~ 1.6 times. In addition, the Limit of detection entry in test [2] (physiological ionic strength) is “picomolar range; also recorded: picomolar level”.

With oxytocin, the “Specific binding to native MOR” value in the test with native MOR [3] is “known not to bind specifically to native MOR”. In addition, the “Response of the biosensor (selectivity, negative control)” value in test [2] (concentrations below 1 μM, graphene microelectrode) is on record as “essentially negligible”. The “Level of nonspecific binding to wsMOR” value in test [4] is given as “low level of nonspecific binding”. Further, the “Sensor response (shift of the Dirac voltage, ΔVD)” value in test [4] (negative control) is listed as 0.17 V.
